The target in experiment [1] is JMJD2C (Homo sapiens (Human), UniProt Q9H3R0). The experiment is described as follows: In vitro enzyme inhibition assay for JMJD2C activity (TR-FRET). Type of experiment: biochemical. On the procedure: This assay determines the ability of a test compound to inhibit JMJD2C demethylase activity. Baculovirus expressed JMJD2C (GenBank Accession #BC143571, AA 2-372) was purchased from BPS Bioscience (Cat#50105).
The ability of test compounds to inhibit the activity of JMJD2C was determined in 384-well plate format under the following reaction conditions: 0.3 nM JMJD2C, 300 nM H3K9me3-biotin labeled peptide (Anaspec cat #64360), 2 μM alpha-ketoglutaric acid in assay buffer of 50 mM HEPES, pH7.3, 0.005% Brij35, 0.5 mM TCEP, 0.2 mg/ml BSA, 50 μM sodium L-ascorbate, and 2 μM ammonium iron(II) sulfate. Reaction product was determined quantitatively by TR-FRET after the addition of detection reagent Phycolink Streptavidin-allophycocyanin (Prozyme) and Europium-anti-di-methylated histone H3 lysine 9 (H3K9me2) antibody (PerkinElmer) in the presence of 5 mM EDTA in LANCE detection buffer (PerkinElmer) at a final concentration of 50 nM and 1 nM, respectively.
(§1) The assay reaction was initiated by the following: 2 μl of the mixture of 900 nM H3K9me3-biotin labeled peptide and 6 μM alpha-ketoglutaric acid with 2 μl of 11-point serial diluted inhibitor in 3% DMSO were added to each well of the plate, followed by the addition of 2 μl of 0.9 nM JMJD2C to initiate the reaction. The reaction mixture was incubated at RT for 30 min, and terminated by the addition of 6 μl of 5 mM EDTA in LANCE detection buffer containing 100 nM Phycolink Streptavidin-allophycocyanin and 2 nM Europium-anti-H3K9me2 antibody. Plates were read by EnVisionMultilabel Reader in TR-FRET mode (excitation at 320 nm, emission at 615 nm and 665 nm) after 1 hr incubation at RT. A ratio was calculated (665/615) for each well and fitted to determine inhibition constant (IC50).
A general note: In TR-FRET formats the signal depends on donor and acceptor labels being close together.

Experiment [2] has as its target JMJD3 (Homo sapiens, UniProt O15054). The experiment is described as follows: In vitro enzyme inhibition assay for JMJD3 activity (TR-FRET). Type of experiment: biochemical. Particulars: Table 5; one class given per A and B pair. Here is the method: This assay determines the ability of a test compound to inhibit JMJD3 demethylase activity. Baculovirus expressed JMJD3 (GenBank Accession #NM-001080424, AA1043-end) was purchased from BPS Bioscience (Cat#50115).
The enzymatic assay of JMJD3 activity is based upon Time Resolved-Fluorescence Resonance Energy Transfer (TR-FRET) detection. The ability of test compounds to inhibit the activity of JMJD3 was determined in 384-well plate format under the following reaction conditions: 5 nM JMJD3, 250 nM H3K27me3-biotin labeled peptide (Anaspec cat #64367), 0.4 to 2 μM α-ketoglutaric acid in assay buffer of 50 mM HEPES, pH7.3, 0.005% Brij35, 0.5 mM TCEP, 0.2 mg/ml BSA, 50 μM sodium L-ascorbate, and 5 μM ammonium iron(II) sulfate. Reaction product was determined quantitatively by TR-FRET after the addition of detection reagent Phycolink Streptavidin-allophycocyanin (Prozyme) and Europium-anti-H3K27me2 antibody (PerkinElmer) in the presence of 5 mM EDTA in LANCE detection buffer (PerkinElmer) at a final concentration of 50 nM and 1 nM, respectively.
The assay reaction was initiated by the following: […] of the mixture of 750 nM H3K27me3-biotin labeled peptide and 1.2 to 6 μM alpha-ketoglutaric acid with 2 μL of 11-point serial diluted inhibitor in 3% DMSO were added to each well of plate, followed by the addition of 2 μl of 15 nM JMJD3 to initiate the reaction. The reaction mixture was incubated at RT for 30 min, and terminated by the addition of 6 μL of 5 mM EDTA in LANCE detection buffer containing 100 nM Phycolink Streptavidin-allophycocyanin and 2 nM Europium-anti-H3K27me2 antibody. Plates were read by EnVisionMultilabel Reader in TR-FRET mode (excitation at 320 nm, emission at 615 nm and 665 nm) after 1 hr incubation at RT. A ratio from the readout of 665/615 was calculated for each well and fitted to determine inhibition constant (IC50).

Experiment [3] concerns the target Jarid1B (Homo sapiens (Human), UniProt Q9UGL1). The experiment is described as follows: In vitro enzyme inhibition assay for Jarid1B activity (TR-FRET). It counts as biochemical. On the procedure: The ability of test compounds to inhibit the activity of Jarid1B was determined in 384-well plate format under the following reaction conditions: 0.8 nM Jarid1B, 300 nM H3K4me3-biotin labeled peptide (Anaspec cat #64357), 2 μM alpha-ketoglutaric acid in assay buffer of 50 mM HEPES, pH7.3, 0.005% Brij35, 0.5 mM TCEP, 0.2 mg/ml BSA, 50 μM sodium L-ascorbate, and 2 μM ammonium iron(II) sulfate. Reaction product was determined quantitatively by TR-FRET after the addition of detection reagent Phycolink Streptavidin-allophycocyanin (Prozyme) and Europium-anti-H3K4me or -H3K4me2 antibody (PerkinElmer) in the presence of 5 mM EDTA in LANCE detection buffer (PerkinElmer) at a final concentration of 25 nM and 1 nM, respectively.
as §1, with “nM H3K4me3-biotin” for “nM H3K9me3-biotin”, “DMSO was” for “DMSO were”, “of 2.4” for “of 0.9”, “nM Jarid1B” for “nM JMJD2C”, “containing 50” for “containing 100”, “nM Europium-anti-H3K4me/H3K4me2” for “nM Europium-anti-H3K9me2”

The subject of experiment [4] is esophageal squamous cell carcinoma KYSE-150 cells. The experiment is described as follows: Cellular IC50 in KYSE-150 cells. It counts as cell-based. Particulars: Homo sapiens, one class given per A and B pair. The text has this:
Table 7 provides IC50 values of various compounds disclosed herein, tested in cellular human esophageal squamous cell carcinoma KYSE-150 cells: […]

Where [5] appears, read: Table 5, one class given per A and B pair.
[6] abbreviates: Table 4, cell gives A/B enantiomer values.

Jarid1B, sequence (Q9UGL1 whole entry, species assumed): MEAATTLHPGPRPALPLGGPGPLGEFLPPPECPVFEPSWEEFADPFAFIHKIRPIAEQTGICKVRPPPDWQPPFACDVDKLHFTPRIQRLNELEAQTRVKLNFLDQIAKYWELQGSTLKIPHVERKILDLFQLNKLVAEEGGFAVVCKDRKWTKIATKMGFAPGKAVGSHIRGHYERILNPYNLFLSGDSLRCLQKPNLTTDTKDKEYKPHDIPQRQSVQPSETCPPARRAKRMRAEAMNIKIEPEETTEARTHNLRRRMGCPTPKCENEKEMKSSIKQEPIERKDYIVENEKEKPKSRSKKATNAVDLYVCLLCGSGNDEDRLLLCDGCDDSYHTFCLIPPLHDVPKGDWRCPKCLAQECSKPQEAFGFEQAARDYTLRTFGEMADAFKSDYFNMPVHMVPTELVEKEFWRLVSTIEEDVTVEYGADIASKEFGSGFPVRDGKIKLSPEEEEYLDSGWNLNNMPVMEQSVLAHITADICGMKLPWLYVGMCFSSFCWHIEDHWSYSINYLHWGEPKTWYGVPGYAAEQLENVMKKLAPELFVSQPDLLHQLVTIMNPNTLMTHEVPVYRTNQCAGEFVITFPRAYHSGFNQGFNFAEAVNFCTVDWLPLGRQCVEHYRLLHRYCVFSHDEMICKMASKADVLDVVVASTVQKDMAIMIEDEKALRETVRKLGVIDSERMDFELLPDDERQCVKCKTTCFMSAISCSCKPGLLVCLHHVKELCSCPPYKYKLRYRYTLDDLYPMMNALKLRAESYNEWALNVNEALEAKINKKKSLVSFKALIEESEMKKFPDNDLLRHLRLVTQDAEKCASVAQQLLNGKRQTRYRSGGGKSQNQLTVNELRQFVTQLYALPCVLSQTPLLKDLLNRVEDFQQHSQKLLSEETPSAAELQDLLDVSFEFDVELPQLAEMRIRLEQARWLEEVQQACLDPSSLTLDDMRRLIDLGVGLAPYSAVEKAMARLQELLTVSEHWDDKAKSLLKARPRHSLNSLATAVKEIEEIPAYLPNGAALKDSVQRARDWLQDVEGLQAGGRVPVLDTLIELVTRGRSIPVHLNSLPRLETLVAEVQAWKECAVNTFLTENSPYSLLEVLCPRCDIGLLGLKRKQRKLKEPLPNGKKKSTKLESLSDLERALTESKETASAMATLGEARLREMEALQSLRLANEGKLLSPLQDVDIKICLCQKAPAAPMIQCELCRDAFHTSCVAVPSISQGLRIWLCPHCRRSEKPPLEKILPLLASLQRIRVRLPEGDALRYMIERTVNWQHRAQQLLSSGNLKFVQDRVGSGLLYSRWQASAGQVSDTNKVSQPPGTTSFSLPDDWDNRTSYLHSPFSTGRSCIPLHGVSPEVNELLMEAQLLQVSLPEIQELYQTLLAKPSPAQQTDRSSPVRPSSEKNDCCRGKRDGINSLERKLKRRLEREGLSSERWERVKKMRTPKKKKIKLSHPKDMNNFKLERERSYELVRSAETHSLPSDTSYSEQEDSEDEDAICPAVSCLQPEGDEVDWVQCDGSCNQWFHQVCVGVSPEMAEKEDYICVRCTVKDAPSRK
JMJD2C, sequence (Q9H3R0 2-372): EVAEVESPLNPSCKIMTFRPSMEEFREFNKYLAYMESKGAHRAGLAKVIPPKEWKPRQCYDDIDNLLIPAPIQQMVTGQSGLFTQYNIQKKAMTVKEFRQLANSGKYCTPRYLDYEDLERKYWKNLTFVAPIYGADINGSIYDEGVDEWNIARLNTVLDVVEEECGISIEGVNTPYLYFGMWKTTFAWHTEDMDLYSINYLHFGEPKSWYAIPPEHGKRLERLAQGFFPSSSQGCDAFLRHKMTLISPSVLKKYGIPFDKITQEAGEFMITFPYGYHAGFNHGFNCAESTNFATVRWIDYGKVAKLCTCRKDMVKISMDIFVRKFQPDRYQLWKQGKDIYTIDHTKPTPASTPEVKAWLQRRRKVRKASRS

As for `CCCc1ccc(N(C)c2ccc3c(c2)CN(C)[C@@H]3CNc2cnccc2C(=O)O)cc1` [Example 20B, (S)-3-(((2-methyl-5-(methyl (4-propylphenyl)amino)isoindolin-1-yl)methyl)amino)isonicotinic acid], the IC50 in experiment [1] (setting [5]) is 0.1 to 1 µM; in experiment [2], 1 to 10 µM; in experiment [3] (setting [5]), no more than 0.1 µM; in experiment [4], no more than 0.1 µM.

Take `Cc1ccccc1-c1ccc2c(c1)CN(C)[C@@H]2CNc1cnccc1C(=O)O` [Example 21B, (S)-3-(((2-methyl-5-(o-tolyl)isoindolin-1-yl)methyl)amino)isonicotinic acid]: the IC50 in experiment [1] (setting [5]) is 0.1 to 1 µM; in experiment [2], 1 to 10 µM; in experiment [3] (setting [5]), no more than 0.1 µM; in experiment [4], no more than 0.1 µM.

As to `CCc1ccc(N(C)c2ccc3c(c2)CCN[C@H]3CNc2cnccc2C(=O)O)cc1` [Example 10A, (R)-3-(((6-((4-ethylphenyl)(methyl)amino)-1,2,3,4-tetrahydroisoquinolin-1-yl)methyl)amino)isonicotinic acid], the half-maximal inhibitory concentration (IC50) is 1 to 10 µM in experiment [1] (setting [5]), 1 to 10 µM in experiment [2], no more than 0.1 µM in experiment [3] (setting [5]) and 0.1 to 1 µM in experiment [4].

As for `CCc1ccc(N(C)c2ccc3c(c2)CN(C)[C@H]3CNc2cnccc2C(=O)O)cc1` [Example 19A, (R)-3-(((5-((4-ethylphenyl)(methyl)amino)-2-methylisoindolin-1-yl)methyl)amino)isonicotinic acid], the IC50 in experiment [1] (setting [5]) was 0.1 to 1 µM; in experiment [2] it was 1 to 10 µM; in experiment [3] (setting [5]) it was no more than 0.1 µM; in experiment [4], no more than 0.1 µM.

For `Cc1ccc(N(C)c2ccc3c(c2)CN[C@H]3CNc2cnccc2C(=O)O)cc1` [Example 5B, 3-[({(1R)-5-[methyl(4-tolyl)amino]isoindolinyl}methyl)amino] pyridine-4-carboxylic acid], the 50% inhibitory concentration (IC50) in experiment [3] (setting [6]) is no more than 0.1 µM; in experiment [3] (setting [5]), no more than 0.1 µM; in experiment [4], 1 to 10 µM.

Consider `Cc1ccccc1-c1ccc2c(c1)CN(C)[C@H]2CNc1cnccc1C(=O)O` [Example 21A, (R)-3-(((2-methyl-5-(o-tolyl)isoindolin-1-yl)methyl)amino)isonicotinic acid], for which the IC50 in experiment [1] (setting [5]) is 0.1 to 1 µM; in experiment [2] it was 1 to 10 µM; in experiment [3] (setting [5]), no more than 0.1 µM; in experiment [4] it was no more than 0.1 µM.

For `CCc1ccc(N(C)c2ccc3c(c2)CN(C)[C@@H]3CNc2cnccc2C(=O)O)cc1` [Example 19B, (S)-3-(((5-((4-ethylphenyl)(methyl)amino)-2-methylisoindolin-1-yl)methyl)amino)isonicotinic acid], the 50% inhibitory concentration (IC50) was 0.1 to 1 µM in experiment [1] (setting [5]), 1 to 10 µM in experiment [2], no more than 0.1 µM in experiment [3] (setting [5]) and no more than 0.1 µM in experiment [4].

For `Cc1ccc(N(C)c2ccc3c(c2)CN(C)[C@@H]3CNc2cnccc2C(=O)O)cc1` [Example 18B, (S)-3-(((2-methyl-5-(methyl(p-tolyl)amino)isoindolin-1-yl)methyl)amino) isonicotinic acid], the IC50 in experiment [1] (setting [5]) was 0.1 to 1 µM; in experiment [2], 1 to 10 µM; in experiment [3] (setting [5]), no more than 0.1 µM; in experiment [4] it was no more than 0.1 µM.

`Cc1cccc(C)c1-c1ccc2c(c1)CCN(C)[C@@H]2CNc1cnccc1C(=O)O` [Example 17B, (S)-3-(((6-(2,6-dimethylphenyl)-2-methyl-1,2,3,4-tetrahydroisoquinolin-1-yl)methyl)amino)isonicotinic acid]: the IC50 in experiment [1] (setting [5]) is 1 to 10 µM; in experiment [3] (setting [5]), no more than 0.1 µM.

For the molecule `Cc1ccc(N(C)c2ccc3c(c2)CN[C@@H]3CNc2cnccc2C(=O)O)cc1` [Example 5A, 3-[({(1S)-5-[methyl(4-tolyl)amino]isoindolinyl}methyl)amino]pyridine-4-carboxylic acid], the figures for the IC50 in experiment [3] (setting [6]), in experiment [3] (setting [5]) and in experiment [4] were no more than 0.1 µM, no more than 0.1 µM and 1 to 10 µM, respectively.

With `Cc1ccc(N(C)c2ccc3c(c2)CCN[C@H]3CNc2cnccc2C(=O)O)cc1` [Example 1B, 3-[({(1R)-6-[methyl(4-methylphenyl)amino]-1,2,3,4-tetrahydroisoquinolyl}methyl)amino]pyridine-4-carboxylic acid], the concentration for half-maximal inhibition (IC50) is 0.1 to 1 µM in experiment [1] (setting [6]); 0.1 to 1 µM in experiment [1] (setting [5]); no more than 0.1 µM in experiment [3] (setting [6]); no more than 0.1 µM in experiment [3] (setting [5]); 1 to 10 µM in experiment [4].

On to `CC(C)c1ccccc1-c1ccc2c(c1)CCN(C)[C@@H]2CNc1cnccc1C(=O)O` [Example 16B, (S)-3-(((6-(2-isopropylphenyl)-2-methyl-1,2,3,4-tetrahydroisoquinolin-1-yl)methyl)amino)isonicotinic acid], for which the values for the IC50 in experiment [1] (setting [5]) and in experiment [3] (setting [5]) were 1 to 10 µM and no more than 0.1 µM, respectively.

As to `Cc1cccc(C)c1-c1ccc2c(c1)CCN(C)[C@H]2CNc1cnccc1C(=O)O` [Example 17A, (R)-3-(((6-(2,6-dimethylphenyl)-2-methyl-1,2,3,4-tetrahydroisoquinolin-1-yl)methyl)amino)isonicotinic acid], the half-inhibitory concentration (IC50) in experiment [1] (setting [5]) is 1 to 10 µM; in experiment [3] (setting [5]) it was no more than 0.1 µM.

Regarding `CCc1ccccc1-c1ccc2c(c1)CCN(C)[C@@H]2CNc1cnccc1C(=O)O` [Example 15B, (S)-3-(((6-(2-ethylphenyl)-2-methyl-1,2,3,4-tetrahydroisoquinolin-1-yl)methyl)amino)isonicotinic acid], the results for the half-inhibitory concentration (IC50) in experiment [1] (setting [5]), in experiment [2] and in experiment [3] (setting [5]) were 0.1 to 1 µM, 1 to 10 µM and no more than 0.1 µM, respectively.

Consider `CC(C)c1ccccc1-c1ccc2c(c1)CCN(C)[C@H]2CNc1cnccc1C(=O)O` [Example 16A, (R)-3-(((6-(2-isopropylphenyl)-2-methyl-1,2,3,4-tetrahydroisoquinolin-1-yl)methyl)amino)isonicotinic acid], for which the IC50 in experiment [1] (setting [5]) is 1 to 10 µM; in experiment [3] (setting [5]) it was no more than 0.1 µM.

On to `CCc1ccccc1-c1ccc2c(c1)CCN(C)[C@H]2CNc1cnccc1C(=O)O` [Example 15A, (R)-3-(((6-(2-ethylphenyl)-2-methyl-1,2,3,4-tetrahydroisoquinolin-1-yl)methyl)amino)isonicotinic acid], for which the IC50 in experiment [1] (setting [5]) is 0.1 to 1 µM; in experiment [2] it was 1 to 10 µM; in experiment [3] (setting [5]), no more than 0.1 µM.

As a reminder, the IC50 is the concentration needed to halve the response being measured. High values mean weaker potency in that assay, low ones greater potency in that assay.

The values above are taken from patent US10059687B2, “Histone demethylase inhibitors” (CELGENE QUANTICEL RESEARCH, INC., priority 2015, dated 2018).
